Each structure is given as a SMILES string.

The record followed here is publication PMC6155403, “Camellia sinensis L. Extract and Its Potential Beneficial Effects in Antioxidant, Anti-Inflammatory, Anti-Hepatotoxic, and Anti-Tyrosinase Activities” (Molecules : A Journal of Synthetic Chemistry and Natural …, 2017).

The nature of assay [1]: DPPH free radical scavenging assay. To be noted: 30 min, room temperature (30 °C), 515 nm.
Protocol: The DPPH method [36] was used to determine the free radical-scavenging potential of each sample. The test sample (0.1 mL) was added to 3.9 mL of DPPH solution (6 × 10^−5 M). The absorbance was measured at 515 nm after 30 min of the reaction at room temperature (30 °C). The antiradical activity was calculated as a percentage of DPPH decolouration versus a control. The results were expressed as the concentration of the FTE that scavenged 50% of the free radicals from the reaction mixture (SC50). The percent DPPH scavenging effect was calculated by using following equation [37]: (1) DPPHscavengingeffect(%)orPercentinhibition=[Ao - At/Ao]×100 where Ao is the absorbance of the control reaction and At is the absorbance in the presence of a test or standard sample. AsA, BHA, BHT, and tocopherol were used as positive references.
Assay [2] is described as follows: Chelation of ferrous metal ions (ferrozine-Fe2+ complex formation). The conditions noted are these: mean ± SD; 10 min, 30 °C, 562 nm. The protocol:
The method of Gülçin et al. was followed. The reaction mixture, containing different concentrations of each sample, FeCl2 (2 mM), and ferrozine (1.5 mM), was adjusted to a total volume of 4 mL with absolute methanol, shaken well, and incubated for 10 min at room temperature (30 °C). The absorbance of the mixture was measured at 562 nm against a blank. EDTA was used as the positive reference. The percent inhibition of ferrozine-Fe^2+ complex formation was calculated against a control. The results were expressed as the concentration of the FTE that chelated 50% of metal ions (IC50).

In the next assay the target is mushroom tyrosinase. Nature of the assay: Mushroom tyrosinase inhibition in vitro (dopachrome method, L-DOPA oxidation). The conditions noted are these: mean ± SEM; L-DOPA substrate, pH 6.8, 25 °C. It counts as biochemical. The method, then: Briefly, 120 µL of 20 mM phosphate buffer (pH 6.8), 40 µL of 48 units/mL mushroom tyrosinase, and 20 µL of various sample concentrations with or without enzyme were placed in the wells of a 96-well microplate. After pre-incubation at 25 °C for 10 min, 20 µL of 0.85 mM L-DOPA was added, and the plate was subsequently incubated at 25 °C for 20 min. The amount of dopachrome was measured at 492 nm in an ELISA plate reader (Anthos 2010, Anthos Labtec Instruments GmbH, Wals, Austria). The extent of inhibition by the test samples was expressed as the percentage of concentration necessary to achieve 50% inhibition (IC50).

As for `O=C1O[C@H]([C@@H](O)CO)C(O)=C1O` [AsA, ascorbic acid], the “SC50 (50% inhibition of the DPPH scavenging effect)” value in assay [1] is reported as 0.209 ± 0.006 moles of tested compound/mole DPPH.

Turning to `O=C(O)CN(CCN(CC(=O)O)CC(=O)O)CC(=O)O` [EDTA, ethylenediaminetetraacetic acid], the “Iron(II)-chelating IC50” value in assay [2] is 10 ± 0 µg/mL.

For `Cc1c(C)c2c(c(C)c1O)CCC(C)(CCCC(C)CCCC(C)CCCC(C)C)O2` (racemic) [Tocopherol, DL-α-tocopherol], the “SC50 (50% inhibition of the DPPH scavenging effect)” value in assay [1] was 0.196 ± 0.005 moles of tested compound/mole DPPH.

As for `Oc1cc(O)c2c(c1)O[C@H](c1cc(O)c(O)c(O)c1)[C@H](O)C2` [EGC, (−)-epigallocatechin], at mushroom tyrosinase, the “Anti-tyrosinase IC50” value came out at 110.00 ± 0.00 µg/mL.

As to `Cc1cc(C(C)(C)C)c(O)c(C(C)(C)C)c1` [BHT, butylated hydroxytoluene], the “SC50 (50% inhibition of the DPPH scavenging effect)” value in assay [1] is 0.224 ± 0.005 moles of tested compound/mole DPPH.

On to `O=C(O[C@@H]1Cc2c(O)cc(O)cc2O[C@@H]1c1cc(O)c(O)c(O)c1)c1cc(O)c(O)c(O)c1` [EGCG, (−)-epigallocatechin-3-gallate], for which the “Anti-tyrosinase IC50” value on mushroom tyrosinase is 234.00 ± 6.00 µg/mL.

Turning to `COc1ccc(O)c(C(C)(C)C)c1` [BHA, butylated hydroxyanisole], in assay [1], the “SC50 (50% inhibition of the DPPH scavenging effect)” value is reported as 0.184 ± 0.011 moles of tested compound/mole DPPH.

Regarding `O=C(O[C@@H]1Cc2c(O)cc(O)cc2O[C@@H]1c1ccc(O)c(O)c1)c1cc(O)c(O)c(O)c1` [ECG, (−)-epicatechin-3-gallate], on mushroom tyrosinase, the “Anti-tyrosinase IC50” value turned out to be 76.50 ± 1.50 µg/mL.
